Patent publication US20200148803A1, “POLYMERIZABLE MULTIFUNCTIONAL ANTIMICROBIAL QUATERNARY AMMONIUM MONOMERS, METHODS OF SYNTHESIS, AND USES THEREOF” (ADA Foundation, priority 2018, published 2020)

Tests used:
[1] = tested on: human gingival fibroblasts (HGF); assay: Cellular metabolic activity (CellTiter AQueous One Solution Reagent), HGF cells; assay type: cell-based; conditions: for effect on metabolic activity of HGF cells: two-fold serial dilutions, 24 h and 72 h
Experimental: (§1) Immortalized human gingival fibroblasts (HGF) were purchased from Applied Biological Materials, Inc. (Richmond, British Columbia, Canada). […] For experiments, cells were obtained from a subconfluent stock culture.
(§2) Direct contact cytotoxicity testing was conducted as previously described^7, 8. Briefly, cells were exposed to two-fold serial dilutions of AMadh series monomers or AMsil series monomers to approximate the maximum possible exposure, (Table 9). Table 9 illustrates biocompatibility testing using maximum possible monomer exposure (mmol/L), assuming 7% mass fraction in the restorative with a maximum of 2% leaching. To account for multiplicity and variable size of restorations, a two- and four-fold greater dilution was also included in the testing. After 24 and 72 h, cells were assessed for cell viability using the LIVE/DEAD® Viability/Cytotoxicity kit (Life Technologies, Corp., Grand Island, N.Y.). Cellular metabolic activity was subsequently assessed using the CellTiter® AQueous One Solution Reagent (Promega, Corp., Madison, Wis.). Negative controls were without the novel monomer and/or cells. Mean+standard error was obtained from five independent replicates tested in triplicate.

[2] = Sessile drop water contact angle (CA) on resin pellets; assay type: physicochemical
Experimental: (§3) Experimental resin (UPE) was formulated from the commercially available monomers urethane dimethacrylate (UDMA, 50.91% w/w), polyethylene glycol extended urethane dimethacrylate (PEG-U, 18.18% w/w), and ethyl 2-(hydroxymethyl)acrylate (EHMA, 30.91% w/w). A conventional visible light initiator system comprised of camphorquinone (0.2% w/w) and ethyl-4-N,N-dimethylamino benzoate (4EDMAB, 0.8% w/w) was utilized. […] Copolymer specimens (beams) were prepared by depositing UPE (UPE resin control) and AM-UPE resins into glass molds (2 mm×2 mm×25 mm) and photopolymerizing them with a dental curing light (Triad 2000, Dentsply, Charlotte, N.C., USA) for 2 minutes from two sides. Copolymer specimens (pellets) were prepared by depositing UPE and AM-UPE resins into a stainless-steel mold (1 mm×16 mm), sandwiched between two sheets of Mylar film and two glass slides and photopolymerized in the same manner as the beam samples. Degree of vinyl conversion (DVC) of UPE and AM-UPE resins was determined utilizing beam samples by collecting the near infra-red (NIR) spectra (Nexus 670, ThermoFisher, Madison, Wis., USA) before and 24 h after polymerization and calculating the reduction in absorption band at 6165 cm^−1 corresponding to the vinyl (C═C—H) overtone signal. By maintaining a constant specimen thickness, a need for an invariant internal standard was eliminated. The DVC was calculated as: […]
(§4) where Area(polymer) and Area(monomer) correspond to the areas under 6165 cm^−1 peaks after and before the polymerization, respectively. After DVC analysis, flexural strength (FS) and elastic modulus (E) of beam specimen were determined employing the Universal Testing Machine (Instron 5500R, Instron Corp., Canton, Mass., USA). The load was applied (at cross-head speed of 1 mm/min) to the center of a specimen positioned on a test device with supports 20 mm apart. The FS and E of the specimens (three replicates/experimental group) was calculated as instructed in the ISO4049:2009 document. Changes in hydrophilicity/hydrophobicity of UPE resins due to the introduction of AM monomers were assessed on pellet specimen by sessile drop contact angle (CA) measurements (drop shape analyzer DSA100, Krüss GmbH, Hamburg, Germany). Following the deposition of 4 μL water droplets on the resin pellets, the pellets were imaged after 1 min resting time with a camera at the points of intersection (three-phase contact points) between the drop contour and the projection of the surface (baseline). The CA water values were calculated employing the Krüss Advance software. At least four repetitive measurements were performed in each group. Analysis of variance (ANOVA) and Newman-Keuls multiple paired comparisons (at 95% confidence level) were used to analyze the experimental data as a function of resin composition and establish a statistical significance of differences between the experimental groups (WINKS 7.0.9, TexaSoft, Cedar Hills, Tex., USA).

[3] = tested on: mouse subcutaneous connective tissue fibroblasts (NCTC clone 929, CCL1); assay: Direct contact cytotoxicity, LIVE/DEAD viability, CCL1 cells; assay type: cell-based
CCL1 cells = assay: Cellular metabolic activity (CellTiter AQueous One Solution Reagent), CCL1 cells; assay type: cell-based; conditions: for effect of monomer concentration on CCL1 metabolic activity: two-fold serial dilutions, 24 h and 72 h
[4] = tested on: human gingival fibroblasts (HGF); assay: Direct contact cytotoxicity, LIVE/DEAD viability, HGF cells; assay type: cell-based; conditions: for effect of monomer concentration on HGF cell viability: two-fold serial dilutions, 24 h and 72 h
Experimental: as §1, §2

[5] = Degree of vinyl conversion (DVC) by near infra-red spectra of copolymer beams; assay type: physicochemical
Experimental: as §3, §4

C=C(C)C(=O)OCC[N+](C)(C)CCCCCCCCCCC(=O)O.[Br-] [AMadh2, 10-carboxy-N-(2-(methacryloyloxy)ethyl)-N,N-dimethyldecan-1-aminium bromide]
time of exposure decreased HGF metabolic activity, difference of means ([1]; 24 h vs 72 h): 19.01 | effect on metabolic activity of HGF cells [1]: not affected by the level of AMadh2 | effect on hydrophobic-hydrophilic properties of the copolymer ([2]; 10 mass percent in UPE resin): a shift towards the lower CA values | reduction of water CA relative to UPE resin control ([2]; 10 mass percent in UPE resin): 18 ° | effect on hydrophobic-hydrophilic properties of the copolymer ([2]; 20 mass percent in UPE resin): did not alter the hydrophobic-hydrophilic properties | percentage of live CCL1 cells, fold lower compared to concentrations ≤4.4 mmol/L ([3]; 8.8 mmol/L, 72 h exposure): at least 10 fold | least squares mean of live CCL1 cells, fold lower than at lower concentrations ([3]; 8.8 mmol/L, independent of time): approx. 2 fold | percent live CCL1 cells compared to control group (no monomer) ([3]; ≤2.2 mmol/L (24 h) and ≤0.28 mmol/L (72 h)): increased | effect of concentration on the number of dead CCL1 cells ([3]; ≤8.8 mmol/L): not statistically different | CCL1 cell metabolic activity (CCL1 cells; 24 h, 8.8 mm/L): reduced | CCL1 cell metabolic activity (CCL1 cells; 72 h): markedly reduced | effect of monomer concentration on CCL1 metabolic activity (CCL1 cells): exerted an effect | effect of exposure time on HGF live cells, difference of means ([4]; 24 h vs 72 h, regardless of concentration): ~16% | effect of monomer concentration on HGF cell viability [4]: no significant effect

C=C(C)C(=O)OCC[N+](C)(C)CCC[Si](OC)(OC)OC.[I-] [AMsil1, N-(2-(methacryloyloxy)ethyl)-N,N-dimethyl-3-(trimethoxysilyl)propan-1-aminium iodide]
effect on metabolic activity of HGF cells [1]: did not statistically affect the metabolic activity | CA ([2]; 10 mass % monomer in UPE resin): 46.9±5.9 ° | reduction of CA relative to UPE resin control ([2]; 10 mass % monomer in UPE resin): 23% | effect on hydrophobic-hydrophilic properties of the copolymer ([2]; 10 mass percent in UPE resin): a shift towards the lower CA values | effect on hydrophobic-hydrophilic properties of the copolymer ([2]; 20 mass percent in UPE resin): maintained the hydrophobic-hydrophilic balance | dead CCL1 cells ([3]; 0.07 mmol/L, 24 h): 128.0 ± 27.1 % Control | live CCL1 cells ([3]; 0.07 mmol/L, 24 h): 156.8 ± 21.4 % Control | dead CCL1 cells ([3]; 0.07 mmol/L, 72 h): 134.0 ± 36.5 % Control | live CCL1 cells ([3]; 0.07 mmol/L, 72 h): 122.5 ± 5.6 % Control | dead CCL1 cells ([3]; 0.13 mmol/L, 24 h): 85.1 ± 11.2 % Control | live CCL1 cells ([3]; 0.13 mmol/L, 24 h): 145.1 ± 14.8 % Control | dead CCL1 cells ([3]; 0.13 mmol/L, 72 h): 140.3 ± 32.7 % Control | live CCL1 cells ([3]; 0.13 mmol/L, 72 h): 122.1 ± 8.5 % Control | dead CCL1 cells ([3]; 0.26 mmol/L, 24 h): 96.8 ± 15.5 % Control | live CCL1 cells ([3]; 0.26 mmol/L, 24 h): 154.5 ± 25.0 % Control | live CCL1 cells ([3]; 0.26 mmol/L, 72 h): 108.9 ± 18.6 % Control | dead CCL1 cells ([3]; 0.52 mmol/L, 24 h): 117.4 ± 27.1 % Control | live CCL1 cells ([3]; 0.52 mmol/L, 24 h): 147.3 ± 20.3 % Control | dead CCL1 cells ([3]; 0.52 mmol/L, 72 h): 124.6 ± 22.9 % Control | live CCL1 cells ([3]; 0.52 mmol/L, 72 h): 122.9 ± 11.1 % Control | dead CCL1 cells ([3]; 1.04 mmol/L, 24 h): 96.0 ± 16.2 % Control | live CCL1 cells ([3]; 1.04 mmol/L, 24 h): 157.9 ± 18.8 % Control | dead CCL1 cells ([3]; 1.04 mmol/L, 72 h): 128.8 ± 20.2 % Control | live CCL1 cells ([3]; 1.04 mmol/L, 72 h): 142.0 ± 6.5 % Control | dead CCL1 cells ([3]; 2.09 mmol/L, 24 h): 86.1 ± 11.7 % Control | live CCL1 cells ([3]; 2.09 mmol/L, 24 h): 152.5 ± 20.3 % Control | dead CCL1 cells ([3]; 2.09 mmol/L, 72 h): 147.6 ± 38.5 % Control | live CCL1 cells ([3]; 2.09 mmol/L, 72 h): 136.0 ± 7.2 % Control | dead CCL1 cells ([3]; 4.17 mmol/L, 24 h): 85.8 ± 13.1 % Control | live CCL1 cells ([3]; 4.17 mmol/L, 24 h): 161.3 ± 15.2 % Control | dead CCL1 cells ([3]; 4.17 mmol/L, 72 h): 91.6 ± 13.7 % Control | live CCL1 cells ([3]; 4.17 mmol/L, 72 h): 132.1 ± 6.7 % Control | dead CCL1 cells ([3]; 8.34 mmol/L, 24 h): 93.0 ± 15.4 % Control | live CCL1 cells ([3]; 8.34 mmol/L, 24 h): 149.6 ± 37.4 % Control | dead CCL1 cells ([3]; 8.34 mmol/L, 72 h): 106.8 ± 7.4 % Control | live CCL1 cells ([3]; 8.34 mmol/L, 72 h): 110.8 ± 12.3 % Control | exposure time reduced the number of live CCL1 cells, fold difference of mean ([3]; 24 h vs 72 h): 1.2 fold | effect of monomer concentration on CCL1 cell viability ([3]; two-fold serial dilutions, 24 h and 72 h): did not exert a statistical effect | reduction of DVC relative to UPE resin control ([5]; 10 mass percent in UPE resin): approximately 27% | reduction of DVC relative to UPE resin control ([5]; 20 mass percent in UPE resin): ~17% | effect of monomer concentration on CCL1 metabolic activity (CCL1 cells): did not affect | exposure time reduced HGF viability, difference of means ([4]; 24 h vs 72 h, independent of concentration): 19.73 | number of live HGFs ([4]; lower concentrations (≤0.13 mmol/L)): decreased | effect of monomer concentration on HGF cell viability [4]: exerted a main effect
